Experimental data taken from patent US20050222136A1, “Active substance combination” (priority 2004, published 2005).
Where a name gives a salt, the structure may show the parent alone.

Tests used:
Assay type in all cases: in vivo
male Wistar albino rats = assay: Determination of ulcerogenic effect in rats; settings: stomach three hours after administration
Method: II. Determination of Ulcerogenic Effect in Rats The ulcerogenic effect of the inventive active substance combination is determined in male Wistar albino rats (body weight 160-200 g, obtained from Harlan, S. Feliu de Codinas, Spain) according to the method described in the publication of J. L. Wallace et al., […]. 1990, 259, […]-[…]. The respective part of the description is incorporated by reference and forms part of the present disclosure. Prior to the tests the rats are kept in cages for 24 hours with free access to drinking water. Afterwards the substances to be tested are orally administered to the rats in form of a 5% by weight suspension in arabic gum. Three hours after the administration of the respective substances to be tested the rats are sacrificed by inhalation of carbon dioxide, the stomachs are removed, opened along the great curvature, washed with saline solution and extended over a suitable frame. By the use of a Projectt 1.2 image analyzer (Projectt, Barcelona, Spain) the ulcerated areas of the stomachs are determined and their size expressed in mm^2.

male Swiss albino mice [1] = assay: Writhing test in mice (phenylbenzoquinone-induced writhing reactions); settings: for inhibition at 40 mg/kg / inhibition at 80 mg/kg / inhibition at 160 mg/kg / ED50: Mus musculus; for inhibition at 40 mg/kg / inhibition at 80 mg/kg / inhibition at 160 mg/kg / Writhing test % Activity: 60 minutes prior to phenylbenzoquinone i.p., inhibition of writhing reactions vs control; for ED50: po; for ED50 / Writhing test ED50: mice; for Writhing test ED50: p.o., in mg/kg
Method: Ia. Writhing Test in Mice
(§1) The Writhing test for the determination of the analgesic activity of the inventive active substance combination is carried out according to the method described in the publication of E. Siegmund et al., Proc. Soc. Exp. Biol. Med. 1957, 95, 729-731 using male Swiss albino mice (20-25 g body weight, obtained from Harlan, S. Feliu de Codinas, Spain). The respective part of the description is hereby incorporated by reference and forms part of the respective disclosure.
The Writhing reactions are induced by intraperitoneal injection of phenylbenzoquinone (25 ml/kg in a 0.02% (volume/volume) ethanolic solution in a 5% (volume/volume) solution in destillated water with Evan's blue in an amount of 0.1% weight/volume) and the writhing reactions are counted during a 15 minute period following the injection. The substances to be tested are orally administered 60 minutes prior to the injection of the phenylbenzoquinone solution. The percentage of the inhibition of the writhing reactions is calculated on the basis of the control group as basis for 0% inhibition.

male Swiss albino mice [2] = assay: Formaline test in mice; settings: for inhibition at 40 mg/kg: Mus musculus, ip
Method: Ib. Formaline Test in Mice
as §1, with “Formaline” for “Writhing”, “T. Ohkubo” for “E. Siegmund”, “J. Pharmacol.” for “Proc. Soc.”, “Ther. 1990, 252, 1261-1268” for “Biol. Med. 1957, 95, 729-731”
The substances to be tested are intraperitoneally administered to the mice in 5% by weight solution of arabic gum in destined water as vehicle. 15 minutes later 20 μl of a 5% by weight solution of formaline in saline solution is injected into the back of the right paw of the animals. The total time in seconds of licking and/or biting the injected paw is registered in the acute phase, i.e. 0-5 minutes (phase I), and in the chronic phase, i.e. 15-30 (phase II), minutes after injection of the formaline. The percentage of inhibition is calculated based on the medium values of the acute and chronic phases of the control group as 0% inhibition of the primary and secondary response.

[3] = 40 mg/kg i.p., acute phase 0-5 minutes after formaline, inhibition of licking/biting time, read-out: Formaline test % Activity Phase I
[4] = read-out: Formaline test % Activity Phase II

SMILES	Ulcerated area (male Wistar albino rats; 80 mg/kg p.o.)	inhibition at 40 mg/kg (male Swiss albino mice [1]; 40 mg/kg p.o.)	inhibition at 80 mg/kg (male Swiss albino mice [1]; 80 mg/kg p.o.)	inhibition at 160 mg/kg (male Swiss albino mice [1]; 160 mg/kg p.o.)	ED50 (male Swiss albino mice [1])	Ulcerated area (male Wistar albino rats; 160 mg/kg p.o.)	Writhing test % Activity (male Swiss albino mice [1]; 40 mg/kg p.o.)	Writhing test % Activity (male Swiss albino mice [1]; 80 mg/kg p.o.)	Writhing test % Activity (male Swiss albino mice [1]; 160 mg/kg p.o.)	Writhing test ED50 (male Swiss albino mice [1])	also measured
O=C(O)Cc1ccccc1Nc1c(Cl)cccc1Cl [Diclofenac-sodium, diclofenac in form of its sodium salt, reference compound]	13.7 mm^2	19.8%	54.9%	84.1%	75.1 mg/kg						Ulcerated area (male Wistar albino rats; 40 mg/kg p.o.): 3.81 mm^2
CC(C)Cc1ccc(C(C)C(=O)O)cc1 (stereo not shown) [Ibuprofen, reference compound]		19.8%	47.6%	62.9%	103 mg/kg						
CC(C)Cc1ccc(C(C)C(=O)O)cc1.[Na] (stereo not shown) [Ibuprofen-sodium, ibuprofen-sodium, reference compound]	5.29 mm^2										
COc1ccc2cc([C@H](C)C(=O)O)ccc2c1 [Naproxen, reference compound]	10.5 mm^2	32%	51.2%	78.5%	71.2 mg/kg						inhibition at 40 mg/kg (male Swiss albino mice [2]; [3]): 31.5%; inhibition at 40 mg/kg (male Swiss albino mice [2]; [4]): 18%
CN(C)CCO[C@H](c1ccccc1)c1ccnn1C.O=C(O)Cc1ccccc1Nc1c(Cl)cccc1Cl [R-(+)-Cizolirtine diclofenacate, R-(+)-5-[α-[2-(Dimethylamino)ethoxy]benzyl]-1-methyl-1H-pyrazole diclofenacate]	2.75 mm^2					7.24 mm^2	14.7%	57.3%	72.1%	84	
CC(C)Cc1ccc([C@H](C)C(=O)O)cc1.CN(C)CCO[C@H](c1ccccc1)c1ccnn1C [R-(+)-Cizolirtine ibuprofenate, R-(+)-5-[α-[2-(Dimethylamino)ethoxy]benzyl]-1-methyl-1H-pyrazole S-(+)-ibuprofenate]						3.21 mm^2	15.9%	45%	80.9%	84.8	
CN(C)CCO[C@H](c1ccccc1)c1ccnn1C.COc1ccc2cc([C@H](C)C(=O)O)ccc2c1 [R-(+)-Cizolirtine naproxenate, R-(+)-5-[α-[2-(Dimethylamino)ethoxy]benzyl]-1-methyl-1H-pyrazole naproxenate]						6.86 mm^2	32.0%	52.0%	77.3%	71.29	Formaline test % Activity Phase I (male Swiss albino mice [2]; 40 mg/kg i.p., acute phase 0-5 minutes after formaline, inhibition of licking/biting time): 49%; Formaline test % Activity Phase II (male Swiss albino mice [2]; 40 mg/kg i.p., chronic phase 15-30 minutes after formaline, inhibition of licking/biting time): 36%
CN(C)CCO[C@H](c1ccccc1)c1ccnn1C [R-(+)-Cizolirtine, R-(+)5-[α-[2-(Dimethylamino)ethoxy]benzyl]-1-methyl-1H-pyrazole]		29%	49.7%	72.5%	79 mg/kg		28.9%			79	inhibition at 40 mg/kg (male Swiss albino mice [2]; [3]): 83%; inhibition at 40 mg/kg (male Swiss albino mice [2]; [4]): 68.5%
CN(C)CCO[C@@H](c1ccccc1)c1ccnn1C.COc1ccc2cc([C@H](C)C(=O)O)ccc2c1 [S-(−)-Cizolirtine naproxenate, S-(−)-5-[α-[2-(Dimethylamino)ethoxy]benzyl]-1-methyl-1H-pyrazole naproxenate]							26.7%	52.4%	68.5%	82.15	
CN(C)CCO[C@@H](c1ccccc1)c1ccnn1C [S-(−)-Cizolirtine, S-(−)-5-[α-[2-(Dimethylamino)ethoxy]benzyl]-1-methyl-1H-pyrazole]							29.0%	49.7%	59.7%	95.26	
